Test system: 485368-065-R3-J5-PDC spheroids with HUVEC/MSC, viability
Test: Anticancer human tumor 485368-065-R3-J5-PDC patient-derived pancreatic carcinoma cell line growth inhibition [RAS]
Conditions: for IC50: curve of first compound; for viability, T/C: stronger effect = lower value
Text: RAS pathway inhibitors in Combinations in Complex Spheroids
A high-throughput screen of multi-cell type tumor spheroids was designed to identify active combinations of RAS pathway inhibitors and targeted small molecules. Complex spheroids include a stromal component modeled by human endothelial cells (HUVEC) and fibroblasts modeled by human mesenchymal stem cells (MSCs). The concentration ranges selected for each drug and investigational agent were based upon clinically achievable concentrations if the clinical Cmax of the agent was known.
Compounds. The drugs and investigational agents: abemaciclib (NSC768073), cobimetinib (NSC768068), divarasib (GDC6063, NSC841802), docetaxel (NSC628503), GDC-1971 (RLY-1971, NSC841576), gemcitabine (NSC613327), inavolisib (NSC800729), ipatasertib (NSC767898), KB-0742 (NSC834161), MRTX-1133 (NSC836407), osimertinib (NSC779217), RMC-4630 (NSC839698), RMC-6236 (NSC851965), RMC-6291 (NSC852671), Ro-3306 (NSC812927), sapanisertib (NSC764658), SN-38 (NSC673596), staurosporine (NSC755774), SY5609 (NSC837396), and tovorafenib (DAY101, NSC766906), were obtained from the National Cancer Institute (NCI) Developmental Therapeutics Program Chemical Repository. The FDA-approved anticancer drug set is available from the NCI Developmental Therapeutics Program. […] The stock solutions were prepared in dimethyl sulfoxide (DMSO, Sigma-Aldrich, St. Louis, MO, cat. D2650) at 800-fold the tested concentration and stored at -70 degrees C prior to their use. All drugs and investigational agents were tested over a range starting from a high concentration at or near the clinical Cmax and decreasing in half-log increments. If the clinical Cmax for an agent had not been determined, the highest concentration tested was 10 microM.
Cell Culture. All cells were maintained in an incubator at 37 degrees C and 5% CO2 with 95% humidity. The PDC lines were cultured according to standard operating procedures established by the NCI PDMR. All PDCs were thawed and cultured in Matrigel-coated flasks prepared with a working solution of 1X Ham's F-12 nutrient mix, without supplementation (Invitrogen, Waltham, MA, cat. 11765054), 100 U/mL penicillin-streptomycin (Invitrogen, cat. 15140122), and 2.5% Matrigel (Corning Inc., Corning, NY, cat. 354248) for the first three passages. The 362531-283-R-J2-PDC and 782815-120-R-J1-PDC lines were cultured in 6C/Colon 1B media, which includes advanced DMEM/F-12 (Thermo Fisher Scientific, cat. 12634028), 10 mM HEPES (Thermo Fisher Scientific, cat. 15630080), 1X GlutaMAX supplement (Thermo Fisher Scientific, cat. 35050061), 0.1 mg/mL primocin (InvivoGen, San Diego, CA, cat. ant-pm-2), 10% defined fetal bovine serum, heat inactivated (HyClone Laboratories Inc., Logan, UT, cat. SH30070.03HI), 50% L-WRN conditioned media (ATCC, cat. CRL-3276), 1.25 mM N-Acetyl-L-cysteine (Sigma-Aldrich, cat. A9165), 10 mM nicotinamide (Sigma-Aldrich, cat. N0636), 1X B-27 supplement (Thermo Fisher Scientific, cat. 17504044), 1X N-2 supplement (Thermo Fisher Scientific, cat. 17502048), 50 ng/mL human EGF (Thermo Fisher Scientific, cat. PHG0311), and 10 microM Y-27632 dihydrochloride (Tocris Bioscience, cat. 1254). The K12877-001-R-J1-PDC line was cultured in 6I media, which includes all 6C/Colon 1B media plus 10 ng/mL human FGF-10 (PeproTech, cat. 100-26), 1 ng/mL human FGF-2 (PeproTech, cat. 100-18B), 1 µM prostaglandin E2 (Tocris Bioscience, cat. 2296), […] hydrocortisone (Sigma-Aldrich, cat. H4001), and […] bovine insulin (Sigma-Aldrich, cat. I6634). The K86415-001-R-J1-PDC line was cultured in 6D media, which includes all 6C/Colon 1B media components minus the L-WRN conditioned media. The 485176-168-R4-J1-PDC was cultured in PANC media, which includes all 6C/Colon 1B media plus 100 ng/mL human FGF-10 (PeproTech, cat. 100-26), 500 nM SB-431542 (Selleckchem, cat. S1067), and 10 nM gastrin (Tocris Bioscience, cat. 3006). […]

[1] = second compound 0.0316 µM, first compound 0.0316 µM
[2] = second compound 0.0316 µM, first compound 0.1 µM
[3] = second compound 0.0316 µM, first compound 0.316 µM
[4] = second compound 0.0316 µM, first compound 1 µM
[5] = second compound 0.1 µM, first compound 0.0316 µM
[6] = second compound 0.1 µM, first compound 0.1 µM
[7] = second compound 0.1 µM, first compound 0.316 µM
[8] = second compound 0.1 µM, first compound 1 µM
[9] = second compound 0.316 µM, first compound 0.0316 µM
[10] = second compound 0.316 µM, first compound 0.1 µM
[11] = second compound 0.316 µM, first compound 0.316 µM
[12] = second compound 0.316 µM, first compound 1 µM
[13] = second compound 1 µM, first compound 0.0316 µM
[14] = second compound 1 µM, first compound 0.1 µM
[15] = second compound 1 µM, first compound 0.316 µM
[16] = second compound 1 µM, first compound 1 µM
[17] = second compound 3.16 µM, first compound 0.0316 µM
[18] = second compound 3.16 µM, first compound 0.1 µM
[19] = second compound 3.16 µM, first compound 0.316 µM
[20] = second compound 3.16 µM, first compound 1 µM
[21] = second compound 10 µM, first compound 0.0316 µM
[22] = second compound 10 µM, first compound 0.1 µM
[23] = second compound 10 µM, first compound 0.316 µM
[24] = second compound 10 µM, first compound 1 µM
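Further: spheroids exposed to agents for seven days before readout.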

In the case of `CCC(CC)c1cc(NC2CCC(N)C2)n2nccc2n1` (centres undefined) + C#Cc1c(F)ccc2cc(O)cc(-c3ncc4c(N5CC6CCC(C5)N6)nc(OCC56CCCN5CC(F)C6)nc4c3F)c12, the IC50 (second compound 0.0316 µM) is reported as 2030 nM, the IC50 (second compound 0.1 µM) is reported as 1940 nM and the IC50 (second compound 0.316 µM) is reported as 2010 nM. The IC50 (second compound 1 µM) was 1980 nM, the IC50 (second compound 3.16 µM) was 1830 nM and the IC50 (second compound 10 µM) was 1250 nM. The viability, T/C [1] was 108%, the viability, T/C [2] was 116% and the viability, T/C [3] was 110%. For the same compound, the viability, T/C [4] was 147%, the viability, T/C (second compound 0.0316 µM, first compound 3.16 µM) was 4.74% and the viability, T/C (second compound 0.0316 µM, first compound 10 µM) was 7.01%. It also gave a viability, T/C [5] of 107%, a viability, T/C [6] of 95.8% and a viability, T/C [7] of 109%. For the same compound, the viability, T/C [8] was 129%, the viability, T/C (second compound 0.1 µM, first compound 3.16 µM) was 4.21% and the viability, T/C (second compound 0.1 µM, first compound 10 µM) was 7.06%. It also gave a viability, T/C [9] of 99.4%, a viability, T/C [10] of 105% and a viability, T/C [11] of 114%. It also gave a viability, T/C [12] of 152%, a viability, T/C (second compound 0.316 µM, first compound 3.16 µM) of 5.79% and a viability, T/C (second compound 0.316 µM, first compound 10 µM) of 7.25%. For the same compound, the viability, T/C [13] was 91.1%, the viability, T/C [14] was 109% and the viability, T/C [15] was 121%. It also gave a viability, T/C [16] of 138%, a viability, T/C (second compound 1 µM, first compound 3.16 µM) of 4.74% and a viability, T/C (second compound 1 µM, first compound 10 µM) of 6.22%. It also gave a viability, T/C [17] of 86.7%, a viability, T/C [18] of 83.8% and a viability, T/C [19] of 96.9%. For the same compound, the viability, T/C [20] was 128%, the viability, T/C (second compound 3.16 µM, first compound 3.16 µM) was 4.66% and the viability, T/C (second compound 3.16 µM, first compound 10 µM) was 6.53%. For the same compound, the viability, T/C [21] was 47.2%, the viability, T/C [22] was 42.1% and the viability, T/C [23] was 61.7%. For the same compound, the viability, T/C [24] was 93.3%, the viability, T/C (second compound 10 µM, first compound 3.16 µM) was 3.14% and the viability, T/C (second compound 10 µM, first compound 10 µM) was 6.12%.

`CCN1CCN(Cc2ccc(Nc3ncc(F)c(-c4cc(F)c5nc(C)n(C(C)C)c5c4)n3)nc2)CC1` + C#Cc1c(F)ccc2cc(O)cc(-c3ncc4c(N5CC6CCC(C5)N6)nc(OCC56CCCN5CC(F)C6)nc4c3F)c12 gave an IC50 (second compound 0.0316 µM) of 457 nM, an IC50 (second compound 0.1 µM) of 313 nM and an IC50 (second compound 0.316 µM) of 435 nM. It also gave an IC50 (second compound 1 µM) of 179 nM, an IC50 (second compound 3.16 µM) of 47.1 nM and an IC50 (second compound 10 µM) of less than 3.16 nM. The viability, T/C (second compound 0.0316 µM, first compound 0.00316 µM) was 101%, the viability, T/C (second compound 0.0316 µM, first compound 0.01 µM) was 87% and the viability, T/C [1] was 82.8%. It also gave a viability, T/C [2] of 72.5%, a viability, T/C [3] of 50.9% and a viability, T/C [4] of 41.4%. For the same compound, the viability, T/C (second compound 0.1 µM, first compound 0.00316 µM) was 98.2%, the viability, T/C (second compound 0.1 µM, first compound 0.01 µM) was 96.7% and the viability, T/C [5] was 76.1%. For the same compound, the viability, T/C [6] was 65.9%, the viability, T/C [7] was 50.1% and the viability, T/C [8] was 39.8%. It also gave a viability, T/C (second compound 0.316 µM, first compound 0.00316 µM) of 94.4%, a viability, T/C (second compound 0.316 µM, first compound 0.01 µM) of 85.9% and a viability, T/C [9] of 76.2%. It also gave a viability, T/C [10] of 72.1%, a viability, T/C [11] of 50.4% and a viability, T/C [12] of 40.6%. The viability, T/C (second compound 1 µM, first compound 0.00316 µM) was 78.5%, the viability, T/C (second compound 1 µM, first compound 0.01 µM) was 83.8% and the viability, T/C [13] was 75.1%. It also gave a viability, T/C [14] of 59.4%, a viability, T/C [15] of 40.1% and a viability, T/C [16] of 40%. It also gave a viability, T/C (second compound 3.16 µM, first compound 0.00316 µM) of 69.4%, a viability, T/C (second compound 3.16 µM, first compound 0.01 µM) of 63.9% and a viability, T/C [17] of 49.7%. For the same compound, the viability, T/C [18] was 47.5%, the viability, T/C [19] was 36.5% and the viability, T/C [20] was 33.8%. It also gave a viability, T/C (second compound 10 µM, first compound 0.00316 µM) of 48.8%, a viability, T/C (second compound 10 µM, first compound 0.01 µM) of 37.2% and a viability, T/C [21] of 31.4%. It also gave a viability, T/C [22] of 30.3%, a viability, T/C [23] of 29.9% and a viability, T/C [24] of 28.3%.

— PubChem BioAssay AID2060902 (Molecular Pharmacology Branch, DTP, NCI, 2025)
